Data published in PubChem BioAssay AID248 (DTP/NCI, 2004).
Several values for one entry are separate records, joined by “and”; a condition that tells them apart may be missing. Identical values can stand only once. Toxic doses and inconclusive results are not listed. Cut-off read from the data, not from the text of the source: active = T/C of 150% or more; inactive = T/C below 125%. Peptide text beside a SMILES is read from it. * marks the point of attachment. Cbz = O=C(OCc1ccccc1)*; NHNH2 = NN*

System: L1210 leukemia ip in BDF1 mice, survival T/C
Assay: NCI In Vivo Anticancer Drug Screen. Data for tumor model L1210 Leukemia (intraperitoneal) in B6D2F1 (BDF1) mice
Settings: endpoint: mean survival time, higher = longer survival
Method in brief: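 Read-out is survival time, reported as the treated-group measurement over the vehicle-control measurement.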

[1] = dose: 100.0 mg/kg/injection, schedule: Q01DX001 (ip), vehicle: carboxymethylcellulose (CMC)
[2] = dose: 200.0 mg/kg/injection, schedule: Q01DX001 (ip), vehicle: carboxymethylcellulose (CMC)
[3] = dose: 400.0 mg/kg/injection, schedule: Q01DX001 (ip), vehicle: carboxymethylcellulose (CMC)
[4] = dose: 100.0 mg/kg/injection, schedule: Q01DX009 (ip), vehicle: saline with Tween-80
[5] = dose: 100.0 mg/kg/injection, schedule: Q04DX003 (ip), vehicle: saline with Tween-80
[6] = dose: 200.0 mg/kg/injection, schedule: Q01DX009 (ip), vehicle: saline with Tween-80
[7] = dose: 200.0 mg/kg/injection, schedule: Q04DX003 (ip), vehicle: saline with Tween-80
[8] = dose: 400.0 mg/kg/injection, schedule: Q01DX009 (ip), vehicle: saline with Tween-80
[9] = dose: 400.0 mg/kg/injection, schedule: Q04DX003 (ip), vehicle: saline with Tween-80
[10] = dose: 100.0 mg/kg/injection, schedule: Q04DX003 (ip), vehicle: water
[11] = dose: 200.0 mg/kg/injection, schedule: Q04DX003 (ip), vehicle: water
[12] = dose: 400.0 mg/kg/injection, schedule: Q04DX003 (ip), vehicle: water
[13] = dose: 200.0 mg/kg/injection, schedule: Q01DX009 (ip), vehicle: saline
[14] = dose: 100.0 mg/kg/injection, schedule: Q04DX003 (ip), vehicle: Klucel (hydroxypropylcellulose) (HPC)
[15] = dose: 50.0 mg/kg/injection, schedule: Q01DX001 (ip), vehicle: carboxymethylcellulose (CMC)
[16] = dose: 100.0 mg/kg/injection, schedule: Q01DX001 (ip), vehicle: Klucel (hydroxypropylcellulose) (HPC)
[17] = dose: 200.0 mg/kg/injection, schedule: Q01DX001 (ip), vehicle: Klucel (hydroxypropylcellulose) (HPC)
[18] = dose: 400.0 mg/kg/injection, schedule: Q01DX001 (ip), vehicle: Klucel (hydroxypropylcellulose) (HPC)

Measured: T/C

Nc1ccc2c(c1)Cc1c-2cc(I)c(O)c1I
inactive: [1] 98 % of control | [2] 101 % of control | [3] 101 % of control

CCOC(=O)/C=C/Cc1cc(-c2ccccc2)ccc1O
inactive: dose: 100.0 mg/kg/injection, schedule: Q04DX003 (ip), vehicle: acetone 98 % of control | dose: 200.0 mg/kg/injection, schedule: Q04DX003 (ip), vehicle: acetone 98 % of control | dose: 400.0 mg/kg/injection, schedule: Q04DX003 (ip), vehicle: acetone 103 % of control

Cc1cccc(NC(=O)c2ccccc2Cl)c1C
inactive: [4] 103 % of control | [5] 95 % of control | [6] 95 % of control | [7] 93 % of control | [8] 104 % of control | [9] 91 % of control

OCCNCc1ccccc1
inactive: [4] 93 % of control | dose: 100.0 mg/kg/injection, schedule: Q01DX009 (ip), vehicle: water 95 % of control | [10] 104 % of control | [6] 102 % of control | dose: 200.0 mg/kg/injection, schedule: Q01DX009 (ip), vehicle: water 103 % of control | [11] 102 % of control | [8] 86 % of control | dose: 400.0 mg/kg/injection, schedule: Q01DX009 (ip), vehicle: water 105 % of control | [12] 102 % of control

CC(O)C(NC(=O)OCc1ccccc1)C(=O)NC(CO)C(=O)NN (stereo not drawn) (Cbz-Thr-Ser-NHNH2; configuration not given here)
inactive: dose: 5.0 mg/kg/injection, schedule: Q01DX001 (ip), vehicle: saline 103 % of control | dose: 10.0 mg/kg/injection, schedule: Q01DX001 (ip), vehicle: saline 103 % of control | dose: 20.0 mg/kg/injection, schedule: Q01DX001 (ip), vehicle: saline 103 % of control | dose: 40.0 mg/kg/injection, schedule: Q01DX001 (ip), vehicle: saline 105 % of control | dose: 80.0 mg/kg/injection, schedule: Q01DX001 (ip), vehicle: saline 97 % of control | dose: 100.0 mg/kg/injection, schedule: Q01DX001 (ip), vehicle: saline 103 % of control and 98 % of control | dose: 200.0 mg/kg/injection, schedule: Q01DX001 (ip), vehicle: saline 95 % of control

CC1NCc2c(N)ncnc21 (stereo not given)
inactive: [1] 106 % of control | [2] 112 % of control | [3] 98 % of control

Cc1ncc2c(=O)[nH]ccn12
inactive: [10] 103 % of control | [11] 103 % of control | [12] 103 % of control

C/C=N/NC(=O)c1ccc[n+](C)c1
inactive: dose: 50.0 mg/kg/injection, schedule: Q01DX009 (ip), vehicle: saline 93 % of control | dose: 100.0 mg/kg/injection, schedule: Q01DX009 (ip), vehicle: saline 96 % of control | [13] 96 % of control

CCOC(=O)Nc1cc(NCC(O)CN(C)c2ccc(Cl)cc2)c([N+](=O)[O-])c(N)n1 (stereo not given)
inactive: dose: 100.0 mg/kg/injection, schedule: Q01DX001 (ip), vehicle: saline with Tween-80 92 % of control | dose: 200.0 mg/kg/injection, schedule: Q01DX001 (ip), vehicle: saline with Tween-80 86 % of control | dose: 400.0 mg/kg/injection, schedule: Q01DX001 (ip), vehicle: saline with Tween-80 89 % of control

CCOCCOCCOCCCNCCCN1CC1
inactive: dose: 88.0 mg/kg/injection, schedule: Q01DX009 (ip), vehicle: saline 117 % of control | [13] 96 % of control | dose: 300.0 mg/kg/injection, schedule: Q01DX001 (ip), vehicle: saline 116 % of control

CCC(C)NCCOC(=O)C(c1ccccc1)c1ccccc1 (stereo not given)
inactive: dose: 75.0 mg/kg/injection, schedule: Q01DX001 (ip), vehicle: other 93 % of control

CC1(C)OC2C(C(=O)NO)OC(n3cnc4c(N)ncnc43)C2O1 (stereo not given)
inactive: dose: 100.0 mg/kg/injection, schedule: Q01DX005 (ip), vehicle: saline 101 % of control | dose: 200.0 mg/kg/injection, schedule: Q01DX005 (ip), vehicle: saline 101 % of control

CN(Cc1ccccc1O)C1CC2CCC1(C)C2(C)C (stereo not given)
inactive: dose: 50.0 mg/kg/injection, schedule: Q04DX002 (ip), vehicle: saline 97 % of control | dose: 100.0 mg/kg/injection, schedule: Q04DX002 (ip), vehicle: saline 101 % of control

Cc1cc(Cl)ccc1NC(=O)Nc1ccc(Cl)c(Cl)c1
inactive: [14] 88 % of control | dose: 200.0 mg/kg/injection, schedule: Q04DX003 (ip), vehicle: Klucel (hydroxypropylcellulose) (HPC) 90 % of control | dose: 400.0 mg/kg/injection, schedule: Q04DX003 (ip), vehicle: Klucel (hydroxypropylcellulose) (HPC) 98 % of control and 88 % of control

CCC(=O)CC(C)CC (stereo not given)
inactive: [15] 94 % of control | [1] 102 % of control | [2] 91 % of control | [3] 102 % of control

CS/C(N)=N\S(=O)(=O)c1ccc(NC(C)=O)cc1
inactive: [5] 93 % of control | [7] 90 % of control | [9] 96 % of control

O=[N+]([O-])CC(Nc1ccccc1)c1ccccc1 (stereo not given)
inactive: dose: 12.5 mg/kg/injection, schedule: Q01DX009 (ip), vehicle: Klucel (hydroxypropylcellulose) (HPC) 108 % of control | dose: 25.0 mg/kg/injection, schedule: Q01DX009 (ip), vehicle: Klucel (hydroxypropylcellulose) (HPC) 100 % of control | dose: 50.0 mg/kg/injection, schedule: Q01DX001 (ip), vehicle: Klucel (hydroxypropylcellulose) (HPC) 96 % of control and 110 % of control | [15] 102 % of control | dose: 50.0 mg/kg/injection, schedule: Q01DX009 (ip), vehicle: Klucel (hydroxypropylcellulose) (HPC) 102 % of control | [16] 97 % of control and 98 % of control | [1] 102 % of control | [17] 102 % of control and 107 % of control | [2] 100 % of control | [18] 105 % of control | [3] 90 % of control

COC(=O)C(CSC(=O)c1ccccc1)NC(=O)c1ccccc1 (stereo not given)
inactive: dose: 25.0 mg/kg/injection, schedule: Q04DX003 (ip), vehicle: Klucel (hydroxypropylcellulose) (HPC) 100 % of control | dose: 50.0 mg/kg/injection, schedule: Q04DX003 (ip), vehicle: Klucel (hydroxypropylcellulose) (HPC) 110 % of control | [16] 97 % of control | [14] 100 % of control | [17] 100 % of control | [18] 101 % of control

Brc1cccc[n+]1-c1cc(-[n+]2ccccc2Br)cc(-[n+]2ccccc2Br)c1
inactive: dose: 1.17 mg/kg/injection, schedule: Q01DX001 (ip), vehicle: other 95 % of control | dose: 2.34 mg/kg/injection, schedule: Q01DX001 (ip), vehicle: other 102 % of control | dose: 4.69 mg/kg/injection, schedule: Q01DX001 (ip), vehicle: other 101 % of control

CCCCCCCCCC(=O)N(CC)CC
inactive: dose: 200.0 mg/kg/injection, schedule: Q04DX002 (ip), vehicle: saline 111 % of control | dose: 400.0 mg/kg/injection, schedule: Q04DX002 (ip), vehicle: saline 92 % of control
